From paper PMC5045412, “Inhibition of pro-HGF activation by SRI31215, a novel approach to block oncogenic HGF/MET signaling” (Oncotarget, 2016)

What was measured:
thrombin = target: T1, thrombin (Homo sapiens, UniProt P00734); assay: Protease panel, FRET peptide substrate; assay type: biochemical
T1 construct: purchased R&D Systems
Method: (§1) The inhibitory activity of SRI 31215 was tested in a panel of six proteases, which included matriptase, hepsin, HGFA, trypsin, thrombin and coagulation factor Xa. All six enzymes were purchased from R&D Systems. The assay buffer used was 50 mM Tris, 20 mM NaCl, 0.01% Tween 20, pH 8.0. The substrate was a custom FRET peptide based on the pro-HGF cleavage sequence (H2N-(EEdans)GKQLRVVNGG(KDabcyl)-amide) pre- pared by New England Peptide. All measurements were made using an Aminco-Bowman Series 2 Luminescence Spectrometer.

matriptase = target: T2, matriptase (Homo sapiens, UniProt Q9Y5Y6); assay: Protease panel, FRET peptide substrate; assay type: biochemical
T2 construct: purchased R&D Systems
T2 sequence (Q9Y5Y6 1-855): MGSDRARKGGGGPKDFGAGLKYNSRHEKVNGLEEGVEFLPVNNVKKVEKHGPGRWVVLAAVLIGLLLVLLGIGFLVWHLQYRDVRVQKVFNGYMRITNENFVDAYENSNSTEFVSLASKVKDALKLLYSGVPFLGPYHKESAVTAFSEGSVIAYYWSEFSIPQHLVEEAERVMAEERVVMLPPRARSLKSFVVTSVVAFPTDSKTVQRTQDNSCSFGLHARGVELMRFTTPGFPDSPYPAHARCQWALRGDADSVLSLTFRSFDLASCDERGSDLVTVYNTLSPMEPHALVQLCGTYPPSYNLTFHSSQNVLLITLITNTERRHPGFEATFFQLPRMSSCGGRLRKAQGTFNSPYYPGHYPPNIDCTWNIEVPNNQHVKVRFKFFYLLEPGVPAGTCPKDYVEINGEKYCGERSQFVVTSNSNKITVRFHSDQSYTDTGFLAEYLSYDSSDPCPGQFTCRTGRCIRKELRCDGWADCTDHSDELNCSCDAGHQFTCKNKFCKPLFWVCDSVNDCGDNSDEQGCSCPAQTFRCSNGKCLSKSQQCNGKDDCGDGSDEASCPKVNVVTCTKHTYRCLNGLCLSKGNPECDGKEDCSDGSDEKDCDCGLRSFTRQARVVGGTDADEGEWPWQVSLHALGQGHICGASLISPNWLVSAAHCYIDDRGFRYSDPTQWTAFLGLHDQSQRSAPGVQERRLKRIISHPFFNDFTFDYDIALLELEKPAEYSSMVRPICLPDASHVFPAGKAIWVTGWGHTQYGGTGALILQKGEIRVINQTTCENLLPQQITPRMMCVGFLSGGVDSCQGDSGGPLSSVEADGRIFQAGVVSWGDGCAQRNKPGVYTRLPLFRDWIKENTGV
Method: as §1

hepsin = target: T3, hepsin (Homo sapiens, UniProt P05981); assay: Protease panel, FRET peptide substrate; assay type: biochemical
T3 construct: purchased R&D Systems
T3 sequence (P05981 whole entry): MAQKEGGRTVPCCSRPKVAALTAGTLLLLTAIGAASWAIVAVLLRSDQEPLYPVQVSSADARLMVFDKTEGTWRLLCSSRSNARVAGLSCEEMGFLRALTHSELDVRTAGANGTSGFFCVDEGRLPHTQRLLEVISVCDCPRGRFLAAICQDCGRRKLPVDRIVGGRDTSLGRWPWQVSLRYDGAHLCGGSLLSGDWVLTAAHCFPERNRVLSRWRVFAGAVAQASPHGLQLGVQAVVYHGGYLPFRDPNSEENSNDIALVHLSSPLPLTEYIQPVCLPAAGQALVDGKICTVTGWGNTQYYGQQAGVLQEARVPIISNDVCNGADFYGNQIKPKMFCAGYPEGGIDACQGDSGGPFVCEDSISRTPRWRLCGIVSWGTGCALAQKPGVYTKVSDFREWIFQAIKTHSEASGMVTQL
Method: as §1

HGFA = target: T4, HGFA (Homo sapiens, UniProt Q04756); assay: Protease panel, FRET peptide substrate; assay type: biochemical
T4 construct: purchased R&D Systems
T4 sequence (Q04756 373-655): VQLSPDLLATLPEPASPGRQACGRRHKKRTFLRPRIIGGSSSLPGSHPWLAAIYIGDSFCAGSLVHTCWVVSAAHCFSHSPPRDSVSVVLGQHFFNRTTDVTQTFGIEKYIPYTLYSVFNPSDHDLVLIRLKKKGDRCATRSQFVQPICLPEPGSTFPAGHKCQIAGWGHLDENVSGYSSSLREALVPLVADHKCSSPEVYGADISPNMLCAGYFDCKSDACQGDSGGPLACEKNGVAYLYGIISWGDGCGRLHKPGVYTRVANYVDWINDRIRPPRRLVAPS
Method: as §1

trypsin = assay: Protease panel, FRET peptide substrate; assay type: biochemical
Method: as §1

recombinant human HGFA = target: T5, recombinant human HGFA (Homo sapiens, UniProt Q04756); assay: Proteolytic activation of pro-HGF by HGFA (immunoblotting); assay type: biochemical; details: SRI 31215 10 μM, HAI-1 20 nM, HGFA 1 nM
T5 construct: purchased R&D Systems
T5 sequence (Q04756 408-655 limits assumed): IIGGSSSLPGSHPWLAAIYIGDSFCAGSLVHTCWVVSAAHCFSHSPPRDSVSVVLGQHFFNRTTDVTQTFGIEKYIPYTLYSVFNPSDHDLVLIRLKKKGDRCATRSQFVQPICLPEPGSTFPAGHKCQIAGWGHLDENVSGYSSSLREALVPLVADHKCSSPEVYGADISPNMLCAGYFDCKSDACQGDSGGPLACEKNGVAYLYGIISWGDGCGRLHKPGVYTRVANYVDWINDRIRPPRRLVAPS
T5 sequence (Q04756 373-407 partner limits assumed): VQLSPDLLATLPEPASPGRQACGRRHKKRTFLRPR
Method: Recombinant human HAI-1, recombinant human HGFA, and recombinant human HGF propeptide (pro-HGF) were purchased from R&D Systems. SRI 31215 (10 μM) or recombinant human HAI-1 (20 nM) were mixed with activated recombinant human HGFA pro-peptide (1nM) in TNC buffer (pH 8.0) and incubated at room temperature for 30 minutes. Recombinant human pro-HGF (40 ng) was added and incubated at 37°C for 1 hour. The reaction was stopped by SDS-PAGE gel sample buffer and samples were boiled and separated by 12% PAGE. Proteins were transferred onto nitrocellulose membrane, blocked with 5% milk and immunoblotted using antibodies that recognize pro-HGF as well as α and β chains of activated HGF.

DU145 cells = tested on: DU145 cells; parameters: method as in PMID 26985294; details: dose-dependent; cited from earlier work

- selectivity for thrombin (thrombin): acceptable
- IC50 (matriptase): 690 nM
- IC50 (hepsin): 650 nM
- IC50 (HGFA): 300 nM
- HGFA-induced cleavage of pro-HGF into alpha and beta chains (recombinant human HGFA): inhibited
Compound: CC1CN(CC2CCN(Cc3ccccc3)CC2)C(=O)N(c2cccc(C(=N)N)c2)C1 (stereo not shown) [SRI 31215, 3-(3-((1-benzylpiperidin-4-yl)methyl)-5-methyl-2-oxotetrahydropyrimidin-1(2H)-yl)benzimidamide]
- selectivity for trypsin (trypsin): acceptable
- concentration at which biological activity (block of scattering) was detected (DU145 cells): 1 μM
